# In patent US9216981B2, “Purinylpyridinylamino-2,4-difluorophenyl sulfonamide derivative, pharmaceutically acceptable salt thereof, preparation method thereof, and pharmaceutical composition with inhibitory activity against Raf kinase, containing same as active ingredient” (Medpacto, Inc., priority 2010, dated 2015):
# How the values were obtained:
# A375P cell line = test: B-Raf cell activity inhibition (A375P growth inhibition, MTT assay); assay type: cell-based; details: A375P human melanoma, V600E mutant of B-Raf, 72 hours
# Method: To check the B-Raf cell activity inhibitory capability of the compounds of the present invention, the following experiments were conducted in A375P cell line (ATCC). […] A375 cell was maintained in DMEM supplemented with 10% fetal bovine serum, glutamine (2 mM), penicillin (100 U/mL), and streptomycin (100 μg/mL). The cell was maintained at 37° C., and in 5% CO2 and 100% humidity. To conduct the growth inhibition test, the cell was plated by using a white 384-well microplate, with 1000 cells/20 μl plated per 1 well. After 24 hours, 5 μl of 5× stock solution of drug was added. All the drugs were initially prepared with 200× stock solution in DMSO, and the final concentration of DMSO was 0.5%. The cell was incubated at 37° C. for 72 hours. For MTT assay, ‘CellTiter 96 (R) Non-Radioactive Cell Proliferation Assay (G4100)’ kit by Promega Corp. was used. 15 μl of dye solution of the Promega kit was put into each well and was cultured in the incubator for 4 hours. And 100 μl of each Solubilization/Stop Solution substance of the kit was added and fixed in the incubator for 24 hours again. And then, absorbance was measured by using a 96-well plate reader with 570 nm of absorbance.
# B-Raf = B-Raf (Homo sapiens (Human), UniProt P15056); test: B-Raf kinase activity (B-Raf/MEK1/MAPK2 cascade, MBP phosphorylation, [γ-32P]ATP); assay type: biochemical; details: activated B-Raf, inactivated MEK1, inactivated MAPK2, 30° C., 30 minutes, read-out: B-Raf Enzyme Activity
# Sequence of B-Raf (P15056 whole entry): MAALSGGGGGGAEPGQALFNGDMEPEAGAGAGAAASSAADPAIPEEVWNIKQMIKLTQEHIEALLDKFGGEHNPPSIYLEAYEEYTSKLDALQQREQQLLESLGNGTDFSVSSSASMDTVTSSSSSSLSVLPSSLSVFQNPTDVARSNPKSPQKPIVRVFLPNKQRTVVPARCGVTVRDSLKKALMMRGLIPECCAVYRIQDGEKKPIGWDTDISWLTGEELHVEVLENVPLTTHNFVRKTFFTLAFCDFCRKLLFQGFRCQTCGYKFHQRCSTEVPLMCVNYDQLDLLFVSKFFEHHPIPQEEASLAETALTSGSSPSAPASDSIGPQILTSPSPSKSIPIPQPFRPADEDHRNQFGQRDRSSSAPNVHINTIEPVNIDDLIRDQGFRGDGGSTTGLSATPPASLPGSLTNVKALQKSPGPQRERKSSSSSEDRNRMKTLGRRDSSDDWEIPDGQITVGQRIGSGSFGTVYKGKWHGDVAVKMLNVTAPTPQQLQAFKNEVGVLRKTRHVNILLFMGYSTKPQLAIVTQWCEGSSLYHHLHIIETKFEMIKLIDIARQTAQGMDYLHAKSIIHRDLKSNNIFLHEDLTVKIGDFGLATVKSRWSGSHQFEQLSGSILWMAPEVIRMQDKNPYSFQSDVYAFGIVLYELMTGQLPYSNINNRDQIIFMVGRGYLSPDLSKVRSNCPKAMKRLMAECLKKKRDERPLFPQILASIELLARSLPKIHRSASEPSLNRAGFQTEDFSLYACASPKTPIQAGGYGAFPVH
# Method: To check the B-Raf kinase inhibitory activity of the compounds of the present invention, the following experiments were conducted.
# 20 μl of diluting solvent (20 mM MOPS, pH 7.2, 25 mM β-glycerol phosphate, 5 mM EGTA, 1 mM sodium orthovanadate, 1 mM dithiothreitol) and 10 μl of Mg/ATP mixed solution (500 μM ATP, 75 mM magnesium chloride) were added into a centrifuge tube, the derivative compound of Formula 1 was added or the compounds of the Examples were not added as a control group, and then 1 ng of activated B-Raf, 0.4 ng of inactivated MEK1, and 1 μg of inactivated MAPK2 were added. The solutions in the tube were collected on the bottom via centrifugation and were reacted at 30° C. for 30 minutes. After taking 4 μl of the mixed solution, the test proceeded to the next step.
# (2) Phosphorylation of Matrix Protein MBP by MAPK2
# 10 μl of diluting solvent, 20 μg of MBP used as a matrix, and 10 μl of diluted [γ-32P]ATP (1 μCi/μL) were added into the 4 μl of the mixed solution obtained from (1). The solutions in the tube were collected on the bottom via centrifugation and were reacted at 30° C. for 30 minutes. And 25 μl of the reacted solution was put carefully on the center of a filter paper (2 cm×2 cm P81) for 30 seconds. Afterwards, the filter paper was cleaned with 0.75% phosphoric acid for 10 minutes three times and with acetone for 5 minutes one time. The filter paper was then moved to a scintillation vial and 5 ml of scintillation cocktail was added thereto. The inhibition rate (IC50) over B-Raf activity was measured by reading radioactivity through a scintillation counter while comparing to the control group.
IC50 (A375P cell line),IC50 (B-Raf),Structure (SMILES)
760 nM,80 nM,"Cc1cccc(Cl)c1S(=O)(=O)Nc1ccc(F)c(Nc2ncccc2-c2ncnc3[nH]cnc23)c1F [Example 27, N-(3-(3-(9H-purin-6-yl)pyridin-2-ylamino)-2,4-difluorophenyl)-2-chloro-6-methylbenzenesulfonamide]"
330 nM,30 nM,"Cc1cc(S(=O)(=O)Nc2ccc(F)c(Nc3ncccc3-c3ncnc4[nH]cnc34)c2F)c(C(F)(F)F)o1 [Example 26, N-(3-(3-(9H-purin-6-yl)pyridin-2-ylamino)-2,4-difluorophenyl)-5-methyl-2-(trifluoromethyl)furan-3-sulfonamide]"
11000 nM,1 nM,"O=S(=O)(Nc1ccc(F)c(Nc2ncccc2-c2ncnc3[nH]cnc23)c1F)c1ccco1 [Example 15, N-(3-(3-(9H-purin-6-yl)pyridin-2-ylamino)-2,4-difluorophenyl)furan-2-sulfonamide]"
2 nM,1 nM,"O=S(=O)(Nc1ccc(F)c(Nc2ncccc2-c2ncnc3[nH]cnc23)c1F)c1ccoc1 [Example 18, N-(3-(3-(9H-purin-6-yl)pyridin-2-ylamino)-2,4-difluorophenyl)furan-3-sulfonamide]"
720 nM,80 nM,"O=S(=O)(Nc1ccc(F)c(Nc2ncccc2-c2ncnc3[nH]cnc23)c1F)c1cccc(Cl)c1F [Example 29, N-(3-(3-(9H-purin-6-yl)pyridin-2-ylamino)-2,4-difluorophenyl)-3-chloro-2-fluorobenzenesulfonamide]"
2930 nM,400 nM,"Cc1nc2ccc(S(=O)(=O)Nc3ccc(F)c(Nc4ncccc4-c4ncnc5[nH]cnc45)c3F)cc2s1 [Example 39, N-(3-(3-(9H-purin-6-yl)pyridin-2-ylamino)-2,4-difluorophenyl)-2-methylbenzo[d]thiazole-6-sulfonamide]"
60 nM,15 nM,"Cc1ccc(S(=O)(=O)Nc2ccc(F)c(Nc3ncccc3-c3ncnc4[nH]cnc34)c2F)o1 [Example 23, N-(3-(3-(9H-purin-6-yl)pyridin-2-ylamino)-2,4-difluorophenyl)-5-methylfuran-2-sulfonamide]"
6 nM,2 nM,"Cc1c(Cl)cccc1S(=O)(=O)Nc1ccc(F)c(Nc2ncccc2-c2ncnc3[nH]cnc23)c1F [Example 14, N-(3-(3-(9H-purin-6-yl)pyridin-2-ylamino)-2,4-difluorophenyl)-3-chloro-2-methyl benzenesulfonamide]"
40 nM,7 nM,"O=S(=O)(Nc1ccc(F)c(Nc2ncccc2-c2ncnc3[nH]cnc23)c1F)c1ccsc1 [Example 17, N-(3-(3-(9H-purin-6-yl)pyridin-2-ylamino)-2,4-difluorophenyl)thiophene-3-sulfonamide]"

# The remaining lines, values behind:
Structure (SMILES),IC50 (A375P cell line),IC50 (B-Raf)
"Cn1ccc2cc(S(=O)(=O)Nc3ccc(F)c(Nc4ncccc4-c4ncnc5[nH]cnc45)c3F)ccc21 [Example 40, N-(3-(3-(9H-purin-6-yl)pyridin-2-ylamino)-2,4-difluorophenyl)-1-methyl-1H-indole-5-sulfonamide]",> 15000 nM,> 10000 nM
"O=S(=O)(Nc1ccc(F)c(Nc2ncccc2-c2ncnc3[nH]cnc23)c1F)c1cccc(Cl)c1 [Example 33, N-(3-(3-(9H-purin-6-yl)pyridin-2-ylamino)-2,4-difluorophenyl)-3-chloro benzenesulfonamide]",770 nM,80 nM
"Cc1ccccc1S(=O)(=O)Nc1ccc(F)c(Nc2ncccc2-c2ncnc3[nH]cnc23)c1F [Example 31, N-(3-(3-(9H-purin-6-yl)pyridin-2-ylamino)-2,4-difluorophenyl)-2-methylbenzenesulfonamide]",670 nM,50 nM
"O=S(=O)(Nc1ccc(F)c(Nc2ncccc2-c2ncnc3[nH]cnc23)c1F)c1cccc2c1OCCC2 [Example 38, N-(3-(3-(9H-purin-6-yl)pyridin-2-ylamino)-2,4-difluorophenyl)chromane-8-sulfonamide]",7190 nM,900 nM
"O=S(=O)(Nc1ccc(F)c(Nc2ncccc2-c2ncnc3[nH]cnc23)c1F)N1CCOCC1 [Example 21, N-(3-(3-(9H-purin-6-yl)pyridin-2-ylamino)-2,4-difluorophenyl)morpholine-4-sulfonamide]",360 nM,1300 nM
"O=S(=O)(Nc1ccc(F)c(Nc2ncccc2-c2ncnc3[nH]cnc23)c1F)C1CCCCC1 [Example 11, N-(3-(3-(9H-purin-6-yl)pyridin-2-ylamino)-2,4-difluorophenyl)cyclohexanesulfonamide]",340 nM,206 nM
"Cn1ccc2cccc(S(=O)(=O)Nc3ccc(F)c(Nc4ncccc4-c4ncnc5[nH]cnc45)c3F)c21 [Example 42, N-(3-(3-(9H-purin-6-yl)pyridin-2-ylamino)-2,4-difluorophenyl)-1-methyl-1H-indole-7-sulfonamide]",5870 nM,800 nM
